From patent US20120149081A1, “METHOD FOR FERMENTATION CULTURE IN MEDIUM CONTAINING XYLOSE” (priority 2010, published 2012)

What was measured:
[1] = tested on: recombinant yeast W801M strain; assay: Simultaneous (glucose/xylose) fermentation test in medium supplemented with amino acid, primary screening; assay type: cell-based, Saccharomyces cerevisiae; details: hour 8 after start, amino acid amount per Table 3; for ΔXylose 0-8 h (decreased amount of xylose): YNGXAc+U medium (10 g/l xylose, 10 g/l glucose), 30° C., initial OD600=10, n=2; for Control ratio % (ΔXylose 0-8 h relative to no-addition control): YNGXAc+U medium, n=2
Method: (§1) The W801M strain prepared as described above was cultured in 5 ml of an YNG+U (6.7 g/l Yeast Nitrogen Base without amino acids, 20 g/l glucose, 20 mg/l uracil) liquid medium prepared in a test tube at 30° C. and 80 rpm for 24 hours, thereby preparing a pre-pre-culture solution. Next, the pre-pre-culture solution (5 ml) was added to new YNX+U liquid medium (250 ml) prepared in a baffled Erlenmeyer flask, followed by pre-culture at 30° C. and 100 rpm. After 48 hours of culture, the culture solution was subjected to 5 minutes of centrifugation at 1000×g at room temperature, thereby removing the supernatant.
(§2) To prevent the introduction of the substrate into the pre-culture solution, the thus collected microbial pellet was suspended in sterile water and then subjected to centrifugation at 1000×g for 5 minutes, thereby collecting microorganisms. Washing was performed twice. After washing, microorganisms were suspended in sterile water, so that a microbial solution was prepared. A sodium acetate buffer was added to the fermentation medium so as to suppress a pH decrease in the medium associated with fermentation. The microbial solution was added to an YNGXAc+U medium (6.7 g/l Yeast Nitrogen Base without amino acids, 10 g/l D-Xylose, 10 g/l Glucose, 25 mM sodium acetate, 20 mg/l uracil, pH 5.0) so that the initial microbial concentration was OD600=10. One type of amino acid was added to the YNGXAc+U medium to result in a predetermined concentration, and then the medium was used. Amino acid was dissolved in water to a concentration 10 times greater than the final concentration. Then the solution was adjusted to pH 5.0, diluted, and then used. The fermentation test was conducted as follows. Five (5) ml of the culture solution was added to a 15-ml plastic tube with a screw cap, the tube was sealed with the cap, and then the tube was shaken at 30° C. (100 rpm). Sampling from the culture solution was performed over time and thus substrates (xylose and glucose) and the product (ethanol) were analyzed via liquid chromatography. Liquid chromatography was performed using a Shim-pack SPR-Pb column (Shimadzu Corporation) at 80° C. An RID-10A refractive index detector (Shimadzu Corporation) was used. Water was used for a mobile phase and sent at a flow rate of 0.8 ml/min.
A fermentation test was conducted (n=2) using as a control an YNGXAc+U medium to which nothing had been added, an YNGXAc+U medium supplemented with casamino acid (CAA, 20 g/L) (that is, an amino acid mixture obtained via hydrolysis of casein) and YNGXAc+U medium supplemented with 18 types of amino acids considered to be contained in casamino acid (20 g/L) or 2 types of amino acid (glutamine and asparagine) (5 g/L) considered not to be contained in casamino acid. The results of the measurement of the decreased amounts of xylose at hour 8 after the start of the fermentation test are shown in Table 3.

[2] = tested on: recombinant yeast W801M strain; assay: Simultaneous (glucose/xylose) fermentation test in medium supplemented with amino acid, secondary test; assay type: cell-based, Saccharomyces cerevisiae; details: n=4
Method: as §1, §2
In addition, 8 hours later, glucose had been completely consumed and thus was not detected in any samples.
Also, 2 hours later, glucose remained in all samples.
Also, 22 hours later, both glucose and xylose had been completely consumed and thus was not detected. It was understood from the results that the microbial concentrations had increased from the initial microbial concentration of OD600=10 to around OD600=15 at hour 22. However, the microbial concentrations at hour 22 when the amino acids were added were equivalent to or lower than that of the control.

Structure (SMILES)	ΔXylose 0-8 h (decreased amount of xylose) [1]	Control ratio % (ΔXylose 0-8 h relative to no-addition control) [1]	xylose consumption rate compared with the control (decreased amount of xylose at hour 8, FIG. 7) ([2]; amino acid added at 1 g/L)	xylose consumption rate compared with the control (decreased amount of xylose at hour 8, FIG. 7) ([2]; amino acid added at 0.3 g/L)
N=C(N)NCCC[C@H](N)C(=O)O [Arg, arginine]	2.91 g/L	109%	–	–
NC(=O)CC[C@H](N)C(=O)O [Gln, glutamine]	3.05 g/L	115%	–	–
CC[C@H](C)[C@H](N)C(=O)O [Ile]	2.09 g/L	79%	–	–
N[C@@H](Cc1ccccc1)C(=O)O [Phe]	2.79 g/L	105%	–	–
N[C@@H](Cc1ccc(O)cc1)C(=O)O [Tyr, tyrosine]	3.62 g/L	136%	Significant effects of improvement	–
CC(C)[C@H](N)C(=O)O [Val, valine]	2.67 g/L	100%	–	–
N[C@@H](CO)C(=O)O [Ser, serine]	3.42 g/L	128%	Significant effects of improvement	Significant effects of improvement
N[C@@H](CC(=O)O)C(=O)O [Asp, aspartic acid]	2.46 g/L	92%	–	–
CC(C)C[C@H](N)C(=O)O [Leu, leucine]	1.12 g/L	42%	–	–
CSCC[C@H](N)C(=O)O [Met]	2.67 g/L	100%	–	–
NCCCC[C@H](N)C(=O)O [Lys]	3.08 g/L	116%	–	–
C[C@H](N)C(=O)O [Ala, alanine]	2.95 g/L	111%	–	–
C[C@@H](O)[C@H](N)C(=O)O [Thr, threonine]	3.29 g/L	124%	Significant effects of improvement	Significant effects of improvement
N[C@@H](CS)C(=O)O [Cys]	2.81 g/L	106%	–	–
NC(=O)C[C@H](N)C(=O)O [Asn, asparagine]	3.60 g/L	135%	Significant effects of improvement	Significant effects of improvement
O=C(O)[C@@H]1CCCN1 [Pro]	2.97 g/L	112%	–	–
NCC(=O)O [Gly]	3.03 g/L	114%	–	–
N[C@@H](Cc1c[nH]cn1)C(=O)O [His, histidine]	3.26 g/L	122%	–	Significant effects of improvement
N[C@@H](Cc1c[nH]c2ccccc12)C(=O)O [Trp]	3.07 g/L	115%	–	–
N[C@@H](CCC(=O)O)C(=O)O [Glu, glutamic acid]	2.25 g/L	85%	–	–
